Results as given in paper PMC7144934, “Design, Synthesis and Biological Evaluation of Phenyl Urea Derivatives as IDO1 Inhibitors” (Molecules, 2020).
Entries after “also recorded” stand apart in the source; their conditions may differ. Where two headings read alike, the source gives them in different places.

Legend:
IDO1 = system: IDO1; set-up: method as in PMID 30760888; settings: Figure 1; cited from earlier work
[1] = target: T1, Recombinant human TDO (rhTDO) (Homo sapiens, UniProt P48775); test: Enzyme assay for TDO inhibition; format: biochemical; settings: 37 °C, 45 min
T1 construct: made in house
T1 sequence (P48775 whole entry): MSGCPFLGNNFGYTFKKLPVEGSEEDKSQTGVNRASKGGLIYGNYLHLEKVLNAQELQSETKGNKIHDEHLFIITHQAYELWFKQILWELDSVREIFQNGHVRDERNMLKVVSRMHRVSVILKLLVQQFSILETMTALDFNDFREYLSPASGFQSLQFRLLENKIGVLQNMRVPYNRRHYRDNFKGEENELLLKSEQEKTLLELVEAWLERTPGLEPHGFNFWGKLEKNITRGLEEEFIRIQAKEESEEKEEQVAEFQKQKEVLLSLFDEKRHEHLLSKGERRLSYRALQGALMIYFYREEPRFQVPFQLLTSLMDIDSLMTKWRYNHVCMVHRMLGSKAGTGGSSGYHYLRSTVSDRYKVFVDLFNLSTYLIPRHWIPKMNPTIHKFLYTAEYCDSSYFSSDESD
Experimental: Recombinant human IDO1 and TDO were expressed and purified according to the reported procedures. The assay was performed according to the literature: A standard reaction mixture (100 µL) containing 100 mM potassium phosphate buffer (pH 6.5), 40 mM ascorbic acid (neutralized with NaOH), 200 µg/mL catalase, 20 µM methylene blue and 0.05 µM rhIDO1 or rhTDO was added to the solution containing the substrate L-tryptophan and the test sample at a determined concentration. The reaction was carried out at 37 °C for 45 min and stopped by adding 20 µL of 30% (w/v) trichloroacetic acid. After heating at 65 °C for 15 min, 100 µL of 2% (w/v) p-dimethylaminobenzaldehyde in acetic acid was added to each well. The yellow pigment derived from kynurenine was measured at 492 nm using a SYNERGY-H1 microplate reader (Biotek Instruments, Inc., Winooski, VT, USA). IC50 was analyzed using the GraphPad Prism 8.0 software (GraphPad Software, San Diego, CA, USA).

[2] = target: T2, Recombinant human IDO1 (rhIDO1) (Homo sapiens, UniProt P14902); test: Enzyme assay for IDO1 inhibition; format: biochemical; settings: for IC50 / IDO1 inhibitory activity (in words): rhIDO1 enzyme assay; for IC50: 37 °C, 45 min
T2 construct: made in house
T2 sequence (P14902 whole entry): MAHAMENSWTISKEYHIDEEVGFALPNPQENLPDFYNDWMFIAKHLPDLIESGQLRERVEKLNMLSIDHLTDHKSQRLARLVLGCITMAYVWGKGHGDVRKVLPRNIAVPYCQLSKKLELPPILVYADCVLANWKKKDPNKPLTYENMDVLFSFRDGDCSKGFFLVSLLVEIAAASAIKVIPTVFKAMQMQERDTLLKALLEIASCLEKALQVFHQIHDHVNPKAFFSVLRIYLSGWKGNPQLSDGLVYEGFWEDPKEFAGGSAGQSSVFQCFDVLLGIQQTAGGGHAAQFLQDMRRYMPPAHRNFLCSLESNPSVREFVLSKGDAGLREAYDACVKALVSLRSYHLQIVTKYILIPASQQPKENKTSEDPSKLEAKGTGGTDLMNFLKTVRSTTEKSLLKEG

human IDO1 = system: human IDO1; set-up: method as in earlier work; settings: human IDO1/HEK 293 cells; read-out: IDO1 inhibitory activity IC50; cited from earlier work
[3] = Single dose pharmacokinetic study in male C57BL/6 mice; format: in vivo; settings: for AUC(0-inf): male, C57BL/6, mouse; for MRT inf: read-out: MRT(0–∞); for half-life: read-out: t1/2β (converted)
Experimental: The animal Care and Welfare Committee of Institute of Materia Medica, Chinese Academy of Medical Sciences approved all animal care, housing, and laboratory procedures. Male C57BL/6 mice were used in the single dose pharmacokinetic studies. Compound i12 was prepared as a 3 mg/mL suspension with 0.5% CMC for oral use and was formulated as a 3 mg/mL solution with 10% DMSO in 20% HP-β-CD for intravenous injection. Sixteen mice were divided into two groups, 10 in the oral group and six in the intravenous group. After fasting 12 h with free access to water, mice were treated with a 3 mg/kg i.v. or 30 mg/kg oral dose of compound i12. Blood samples (50 µL) were collected at 5, 15, 30 min, 1, 2, 4, 6, 8, 12 and 24 h after oral administration and 2, 5, 15, 30 min, 1, 2, 4, 6, 8, 12 and 24 h after intravenous injection. After centrifugation, the plasma samples (20 µL) were precipitated by four volumes of acetonitrile. The supernatant were analyzed by liquid chromatography/tandem mass spectrometry with a Zorbax C18 column (50 mm × 2.1 mm, 3.5 µm). Compound detection was performed with the mass spectrometer in positive ionization mode by t-SIM: m/z 489.209 for compound i12. The pharmacokinetic parameters were calculated with WinNonlin software V6.3 using non-compartmental analysis (Pharsight Corporation, Mountain View, CA, USA).

[4] = system: mouse melanoma cells B16F10; test: B16F10 subcutaneous xenograft model; format: in vivo, mice
Experimental: (§1) The mouse melanoma cells B16F10 were cultured and harvested in saline at 6 × 10^6 cells/0.2 mL volume. Cells (0.2 mL) were injected subcutaneously into male C57BL/6 mice at day 0 of the experiment, and treatment was initiated at day 1 following the mice enrolled randomly in control and experimental groups. For control group, 0.5% CMCNa was orally administered every day. The CTX group were administered CTX intraperitoneally at the dose of 100 mg/kg. Compound i12 was dissolved in 0.5% CMC-Na for oral treatment. After 17 days, the mice were sacrificed and the tumors were stripped and weighted. The tumor growth inhibition (TGI) was calculated as TGI = (1 − tumor weight treatment/tumor weight vehicle) × 100%. The statistical analysis was performed with GraphPad Prism 8.0 software and the significance level was evaluated with one-way ANOVA model.

[5] = system: mouse pancreatic cancer cells PAN02; test: PAN02 pancreatic cancer subcutaneous xenograft model; format: in vivo, mice
Experimental: as §1, with “pancreatic cancer” for “melanoma”, “PAN02” for “B16F10”, “60 mg/kg” for “100 mg/kg.”, “15” for “17”

pathway = system: pathway; set-up: method as in PMID 30760888; settings: Figure 1; cited from earlier work

## C[C@@H](C(=O)Nc1ccc(Cl)cc1)C1CCC(c2ccnc3ccc(F)cc23)CC1 (some centres unmarked) [BMS-986205]
IDO1
  IC50: 1.7 nM

## CC(C)CN(CC(C)C)c1ccc(C(CC(=O)O)C(F)(F)F)cc1NC(=O)Nc1ccc(F)cc1F (centres unmarked) [BMS-E30, reference compound]
[1]
  IC50: > 100 µM
[2]
  IC50: 8.57 µM
Human IDO1
  IC50: 0.7 nM

## CC1CC(C)CN(c2ccc(C(CC(=O)O)C(F)(F)F)cc2NC(=O)Nc2ccccc2)C1 (centres unmarked) [i1, 3-[4-(3,5-dimethylpiperidin-1-yl)-3-(3-phenylureido)-phenyl]-4,4,4-trifluorobutyric Acid]
[1]
  IC50: > 100 µM
[2]
  IC50: 34.1 µM
other
  melting point: 94.1 to 95.7 °C

## CC1CC(C)CN(c2ccc(C(CC(=O)O)C(F)(F)F)cc2NC(=O)Nc2ccc(C#N)cc2)C1 (centres unmarked) [i12, 3-[3-[3-(4-cyanophenyl)ureido]-4-(3,5-dimethylpiperidin-1-yl)-phenyl]-4,4,4-trifluorobutyric Acid]
[3]; PO 30 mg/kg, 30 mg/kg
  AUC(0–∞): 12,849 h·ng/mL
[3]; plasma, iv, 3 mg/kg, IV 3 mg/kg
  AUC(0-inf): 2160 ng·h/mL
[3]; plasma, po, 30 mg/kg, PO 30 mg/kg
  AUC(0-inf): 11500 ng·h/mL
[3]; mouse, plasma, IV 3 mg/kg
  AUC(0-t): 1320 ng·h/mL
  Cmax: 6960 ng/mL
  MRT inf: 8.6 h
  half-life: 7.17 h
[3]; mouse, plasma, IV 3 mg/kg, read-out: Cl (plasma clearance)
  clearance: 22.4 mL/min/kg
[3]; mouse, plasma, IV 3 mg/kg, read-out: Vss
  Vd: 15.8 L/kg
[3]; mouse, plasma, PO 30 mg/kg
  AUC(0-t): 11500 ng·h/mL
  Cmax: 2700 ng/mL
  Tmax: 2 h
  MRT inf: 8.18 h
  half-life: 11.2 h
[3]; mouse, plasma, PO 30 mg/kg vs IV 3 mg/kg, read-out: F% (oral bioavailability)
  bioavailability: 87.4%
[1]
  IC50: > 100 µM
[2]; ratio of IDO1 enzyme IC50 values
  fold improvement in IDO1 inhibitory activity compared to compound i1: 100 fold
[2]
  IDO1 inhibitory activity (in words): more potent IDO1 inhibitory activity than the unsubstituted i1
  IC50: 0.331 µM
[4]; 15 mg/kg daily, oral, 17 days, tumor weight
  tumor growth inhibition (TGI): 40.5%
[4]; i12 orally 15, 30 or 100 mg/kg, B16F10 xenograft mice
  body weight compared with the control group: no obvious body weight difference; also recorded: no obvious reduction; also recorded: no significant changes
[5]; 30 mg/kg daily, oral, 15 days, tumor weight
  tumor growth inhibition (TGI): 34.3%
[5]; i12 orally 10, 30 or 100 mg/kg, PAN02 xenograft mice
  body weight of each group after the treatment: no obvious body weight difference

## Cn1cc(C[C@@H](N)C(=O)O)c2ccccc21 [indoximod]
pathway
  IC50: 450 nM

## CC1CC(C)CN(c2ccc(C(CC(=O)O)C(F)(F)F)cc2NC(=O)Cc2ccc([N+](=O)[O-])cc2)C1 (centres unmarked) [j3, 3-{4-(3,5-dimethylpiperidin-1-yl)-3-[2-(4-nitrophenyl)acetylamino]-phenyl}-4,4,4-trifluorobutyric Acid]
[1]
  IC50: > 100 µM
[2]
  IDO1 inhibitory activity (in words): no inhibitory activity
  IC50: > 100 µM
